Measured values as given in US7855290B2, “Pyridine derivatives and pyrimidine derivatives (3)” (Eisai R&D Management Co., Ltd., priority 2005, dated 2010).

Assays:
[1] = system: Human gastric cancer cells (MKN-45); assay: Inhibitory activity against the proliferation of human gastric cancer cells (MKN-45); format: cell-based; conditions: 72 h, MKN-45, 1% FBS RPMI1640, 3 days, Cell Counting Kit-8
Outline: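 MKN-45 cells seeded overnight in RPMI1640 with 1% FBS, then exposed to compound for 3 days at 37° C, 5% CO2. Viability read with CCK-8 after about 1.5 hrs, absorbance at 450 nm (reference 660 nm).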

HGFR = target: T1, HGFR (Homo sapiens, UniProt P08581); assay: Inhibitory activity against the HGFR autophosphorylation using ELISA (MKN-45 cells); format: cell-based; conditions: 1 hr with test substance
T1 construct: endogenous in cells; host or cells: MKN-45 human gastric cancer cells
T1 sequence (P08581 25-1390): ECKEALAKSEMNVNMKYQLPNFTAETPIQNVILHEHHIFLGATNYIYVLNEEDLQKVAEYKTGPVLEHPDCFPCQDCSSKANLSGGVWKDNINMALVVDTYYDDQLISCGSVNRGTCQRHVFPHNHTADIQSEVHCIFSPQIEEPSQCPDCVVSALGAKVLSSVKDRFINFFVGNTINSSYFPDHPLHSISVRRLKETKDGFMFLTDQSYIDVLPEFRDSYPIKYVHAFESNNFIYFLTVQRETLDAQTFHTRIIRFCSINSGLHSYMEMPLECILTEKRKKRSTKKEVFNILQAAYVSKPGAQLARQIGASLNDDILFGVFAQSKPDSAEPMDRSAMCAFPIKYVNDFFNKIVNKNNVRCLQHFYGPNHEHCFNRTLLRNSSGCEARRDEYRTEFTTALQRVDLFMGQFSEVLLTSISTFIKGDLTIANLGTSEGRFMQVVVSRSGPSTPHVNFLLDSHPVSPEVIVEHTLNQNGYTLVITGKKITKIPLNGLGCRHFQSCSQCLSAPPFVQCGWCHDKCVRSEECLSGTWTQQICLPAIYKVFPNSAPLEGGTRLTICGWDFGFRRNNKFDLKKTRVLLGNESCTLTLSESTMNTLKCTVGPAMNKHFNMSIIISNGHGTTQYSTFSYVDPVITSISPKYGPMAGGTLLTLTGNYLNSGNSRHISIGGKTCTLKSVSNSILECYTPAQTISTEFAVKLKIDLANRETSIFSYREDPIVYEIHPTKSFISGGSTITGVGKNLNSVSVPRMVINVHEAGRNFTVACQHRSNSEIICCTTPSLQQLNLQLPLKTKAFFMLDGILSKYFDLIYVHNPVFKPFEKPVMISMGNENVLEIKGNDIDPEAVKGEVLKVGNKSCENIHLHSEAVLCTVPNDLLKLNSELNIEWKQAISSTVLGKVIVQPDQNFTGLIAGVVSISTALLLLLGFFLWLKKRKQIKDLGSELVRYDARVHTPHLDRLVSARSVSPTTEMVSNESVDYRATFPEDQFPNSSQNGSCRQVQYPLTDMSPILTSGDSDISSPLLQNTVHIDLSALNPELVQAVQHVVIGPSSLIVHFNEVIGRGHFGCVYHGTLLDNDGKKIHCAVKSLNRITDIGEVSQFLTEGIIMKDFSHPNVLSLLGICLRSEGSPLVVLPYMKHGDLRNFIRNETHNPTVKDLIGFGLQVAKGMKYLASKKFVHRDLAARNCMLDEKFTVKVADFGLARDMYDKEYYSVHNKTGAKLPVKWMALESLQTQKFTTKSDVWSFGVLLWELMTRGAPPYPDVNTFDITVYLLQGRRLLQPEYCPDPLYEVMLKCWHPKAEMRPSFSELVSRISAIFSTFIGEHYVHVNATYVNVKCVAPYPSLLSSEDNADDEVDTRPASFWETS
Outline: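 HGFR autophosphorylation measured by sandwich ELISA: anti-phosphotyrosine PY20 capture, anti-HGFR detection, HRP secondary, TMB read at 450 nm. Lysates came from MKN-45 cells given test substance for 1 h at 37° C in 1% FBS RPMI1640. Percent activity normalised between no-compound extract and lysis buffer alone.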

IC50 [1] [nM] | IC50 (HGFR) [nM] | SMILES
5.4 | 13 | O=C(Nc1cc(Oc2cc(F)c(NC(=O)C3(C(=O)Nc4ccc(F)cc4)CC3)cc2F)ccn1)N1CC(CN2CCC2)C1 [Example 95, N-{4-[(2-{[3-(Azetidin-1-ylmethyl)azetidin-1-ylcarbonyl]amino}pyridin-4-yl)oxy]-2,5-difluorophenyl}-N′-(4-fluorophenyl)cyclopropane-1,1-dicarboxamide]
15 | 14 | O=C(Nc1cc(Oc2ccc(NC(=O)C3(C(=O)Nc4ccc(F)cc4)CC3)cc2F)ccn1)N1CCC(CO)CC1 [Example 85, N-(3-Fluoro-4-{[2-({[-4-(hydroxymethyl)piperidin-1-yl]carbonyl}amino)pyridin-4-yl]oxy}phenyl)-N′-(4-fluorophenyl)cyclopropane-1,1-dicarboxamide]
19 | 17 | O=C(Nc1cc(Oc2ccc(NC(=O)C3(C(=O)Nc4ccc(F)cc4)CC3)cc2F)ccn1)N1CCC(O)CC1 [Example 84, N-[3-Fluoro-4-[(2-{[(4-hydroxypiperidin-1-yl)carbonyl]amino}pyridin-4-yl)oxy]phenyl}-N′-(4-fluorophenyl)cyclopropane-1,1-dicarboxamide]
23 | 17 | CN(C)CC1CN(C(=O)Nc2cc(Oc3cc(F)c(NC(=O)C4(C(=O)Nc5ccc(F)cc5)CC4)cc3F)ncn2)C1 [Example 98, N-[4-({4-[({3-[(Dimethylamino)methyl]azetidin-1-yl}carbonyl)amino]pyrimidin-6-yl}oxy)-2,5-difluorophenyl]-N′-(4-fluorophenyl)cyclopropane-1,1-dicarboxamide]
18 | 20 | O=C(Nc1cc(Oc2ccc(NC(=O)C3(C(=O)Nc4ccc(F)cc4)CC3)cc2F)ccn1)N1CC[C@H](O)C1 [Example 88, N-(3-Fluoro-4-{[2-({[(3S)-3-hydroxypyrrolidin-1-yl]carbonyl}amino)pyridin-4-yl]oxy}phenyl)-N′-(4-fluorophenyl)cyclopropane-1,1-dicarboxamide]
18 | 17 | O=C(Nc1cc(Oc2ccc(NC(=O)C3(C(=O)Nc4ccc(F)cc4)CC3)c(F)c2)ccn1)N1CC[C@H](O)C1 [Example 89, N-(2-Fluoro-4-{[2-({[(3S)-3-hydroxypyrrolidin-1-yl]carbonyl}amino)pyridin-4-yl]oxy}phenyl)-N′-(4-fluorophenyl)cyclopropane-1,1-dicarboxamide]
4.9 | 13 | CN1CCN(C2CCN(C(=O)Nc3cc(Oc4cc(F)c(NC(=O)C5(C(=O)Nc6ccc(F)cc6)CC5)cc4F)ccn3)CC2)CC1 [Example 92, N-(2,5-Difluoro-4-{[2-({[4-(4-methylpiperazin-1-yl)piperidin-1-yl]carbonyl}amino)pyridin-4-yl]oxy}phenyl)-N′-(4-fluorophenyl)cyclopropane-1,1-dicarboxamide]
17 | 7 | O=C(Nc1cc(Oc2ccc(NC(=O)C3(C(=O)Nc4ccc(F)cc4)CC3)cc2F)ccn1)N1CC(CO)C1 [Example 81, N-(3-Fluoro-4-{[2-({[3-(hydroxymethyl)azetidin-1-yl]carbonyl}amino)pyridin-4-yl]oxy}phenyl)-N′-(4-fluorophenyl)cyclopropane-1,1-dicarboxamide]
19 | 22 | CN(C)CC1CCN(C(=O)Nc2cc(Oc3ccc(NC(=O)C4(C(=O)Nc5ccc(F)cc5)CC4)cc3F)ccn2)CC1 [Example 5, N-[4-({2-[({4-[(Dimethylamino)methyl]piperidin-1-yl}carbonyl)amino]pyridin-4-yl}oxy)-3-fluorophenyl]-N′-(4-fluorophenyl)cyclopropane-1,1-dicarboxamide]
5 | 11 | O=C(Nc1cc(Oc2cc(F)c(NC(=O)C3(C(=O)Nc4ccc(F)cc4)CC3)cc2F)ccn1)N1CCC1 [Example 90, N-[4-({2-[(Azetidin-1-ylcarbonyl)amino]pyridin-4-yl}oxy)-2,5-difluorophenyl]-N′-(4-fluorophenyl)cyclopropane-1,1-dicarboxamide]
15 | 11 | O=C(Nc1cc(Oc2ccc(NC(=O)C3(C(=O)Nc4ccc(F)cc4)CC3)cc2F)ccn1)N1CC[C@@H](O)C1 [Example 86, N-(3-Fluoro-4-{[2-({[(3R)-3-hydroxypyrrolidin-1-yl]carbonyl}amino)pyridin-4-yl]oxy}phenyl)-N′-(4-fluorophenyl)cyclopropane-1,1-dicarboxamide]
3.8 | 4.2 | O=C(Nc1cc(Oc2cc(F)c(NC(=O)C3(C(=O)Nc4ccc(F)cc4)CC3)cc2F)ccn1)N1CC(CO)C1 [Example 96, N-(2,5-Difluoro-4-{[2-({[3-(hydroxymethyl)azetidin-1-yl]carbonyl}amino)pyridin-4-yl]oxy}phenyl)-N′-(4-fluorophenyl)cyclopropane-1,1-dicarboxamide]
21 | 22 | O=C(Nc1cc(Oc2ccc(NC(=O)C3(C(=O)Nc4ccc(F)cc4)CC3)c(F)c2)ccn1)N1CCC(O)CC1 [Example 82, N-[2-Fluoro-4-[(2-{[(4-hydroxypiperidin-1-yl)carbonyl]amino}pyridin-4-yl)oxy]phenyl}-N′-(4-fluorophenyl)cyclopropane-1,1-dicarboxamide]
14 | 12 | O=C(Nc1cc(Oc2ccc(NC(=O)C3(C(=O)Nc4ccc(F)cc4)CC3)c(F)c2)ccn1)N1CC[C@@H](O)C1 [Example 87, N-(2-Fluoro-4-{[2-({[(3R)-3-hydroxypyrrolidin-1-yl]carbonyl}amino)pyridin-4-yl]oxy}phenyl)-N′-(4-fluorophenyl)cyclopropane-1,1-dicarboxamide]
5.2 | 7 | CN(C)CC1CN(C(=O)Nc2cc(Oc3cc(F)c(NC(=O)C4(C(=O)Nc5ccc(F)cc5)CC4)cc3F)ccn2)C1 [Example 93, N-[2,5-Difluoro-4-({2-[({3-[(dimethylamino)methyl]azetidin-1-yl]carbonyl)amino]pyridin-4-yl}oxy)phenyl]-N′-(4-fluorophenyl)cyclopropane-1,1-dicarboxamide]
16 | 18 | O=C(Nc1cc(Oc2ccc(NC(=O)C3(C(=O)Nc4ccc(F)cc4)CC3)c(F)c2)ccn1)N1CCC(CO)CC1 [Example 83, N-(2-Fluoro-4-{[2-({[4-(hydroxymethyl)piperidin-1-yl]carbonyl}amino)pyridin-4-yl]oxy}phenyl)-N′-(4-fluorophenyl)cyclopropane-1,1-dicarboxamide]
38 | 14 | O=C(Nc1cc(Oc2cc(F)c(NC(=O)C3(C(=O)Nc4ccc(F)cc4)CC3)cc2F)ncn1)N1CC(O)C1 [Example 97, N-{2,5-Difluoro-4-[(4-{[(3-hydroxyazetidin-1-yl)carbonyl]amino}pyrimidin-6-yl)oxy]phenyl}-N′-(4-fluorophenyl)cyclopropane-1,1-dicarboxamide]
